According to PubChem BioAssay (NCI):
Several values for one entry are separate records, joined by “and”; a condition that tells them apart may be missing. Equal values may be shown once.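 Five compound concentrations were applied to cells in 96-well plates for 48 hours; endpoints were derived by simple linear interpolation of the resulting dose-response curve. GI50 marks 50% less growth. TGI marks complete inhibition of growth.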

Tests used:
Assay in all cases: NCI tumour cell line growth inhibition, 48 h
[1] = tested on: NCI-H522 lung
[2] = tested on: NCI/ADR-RES ovarian
[3] = tested on: HL-60(TB) leukemia
[4] = tested on: SF-268 CNS
[5] = tested on: OVCAR-8 ovarian
[6] = tested on: HS 578T breast
[7] = tested on: MCF7 breast
[8] = tested on: U251 CNS
[9] = tested on: A549 NSCLC
[10] = tested on: IGROV1 ovarian

| SMILES | TGI [1] | TGI [2] | TGI [3] | TGI [4] | TGI [5] | TGI [6] | TGI [7] | TGI [8] | TGI [9] | TGI [10] | GI50 [1] | GI50 [2] | GI50 [3] | GI50 [4] | GI50 [5] | GI50 [6] | GI50 [7] | GI50 [8] | GI50 [9] | GI50 [10] |
| --- | --- | --- | --- | --- | --- | --- | --- | --- | --- | --- | --- | --- | --- | --- | --- | --- | --- | --- | --- | --- |
| CC1(C)O[C@@H]2C[C@H]3[C@@H]4C[C@H](F)C5=CC(=O)C=C[C@]5(C)[C@@]4(F)[C@@H](O)C[C@]3(C)[C@]2(C(=O)CO)O1 | > 100 µM | > 100 µM | > 100 µM | > 100 µM | > 100 µM | > 100 µM | > 100 µM | > 100 µM | > 100 µM | > 100 µM | – | – | – | – | – | – | – | – | – | – |
| C/C(=N\NC(=S)N1CCCCCC1)c1cccc2cccnc12 | > 100 µM | 5.42 µM | > 45.7 µM | > 100 µM | > 100 µM | > 100 µM | > 100 µM | > 29.2 µM | > 100 µM | > 94.1 µM | – | – | – | – | – | – | – | – | – | – |
| COc1ccc(-c2c3c(nc4n[nH]c(-c5ccc(Cl)cc5)c24)-c2ccccc2C(=O)C3=O)cc1 | 2.99 µM | > 100 µM | 28.1 µM | 2.99 µM | 3.44 µM | 8.14 µM | 5.7 µM | 2.81 µM | 3.54 µM | 3.22 µM | 1.43 µM | 2.64 µM | 3.08 µM | 1.4 µM | 1.59 µM | 1.85 µM | 1.46 µM | 1.46 µM | 1.83 µM | 1.54 µM |
| COc1c(N2CCN(CN3C(=O)C(=O)c4cc(Cl)ccc43)C(C)C2)c(F)cc2c(=O)c(C(=O)O)cn(C3CC3)c12 (stereo unspecified) | > 100 µM | > 100 µM | > 100 µM | > 100 µM | > 100 µM | > 100 µM | > 100 µM | > 100 µM | > 100 µM | > 100 µM | > 100 µM | 76.4 µM | 7.29 µM | 26.8 µM | 51.9 µM | 30.4 µM | 26.6 µM | 41.3 µM | 49.4 µM | > 100 µM |
| CN(CCCCCl)P(=O)(OCc1ccc([N+](=O)[O-])o1)OCC1OC(n2cnc([N+](=O)[O-])c2N)C(O)C1O (stereo unspecified) | > 100 µM | > 100 µM | > 100 µM | > 100 µM | > 100 µM | > 100 µM | > 100 µM | > 100 µM | > 100 µM | > 100 µM | > 100 µM | > 100 µM | > 100 µM | > 100 µM | > 100 µM | > 100 µM | 54.8 µM | > 100 µM | > 100 µM | > 100 µM |
| Cc1ccc(C2NC(=O)c3ccccc3N2)c(C)c1 (stereo unspecified) | 4.91 µM | 6.5 µM | 1.61 µM | > 100 µM | > 71.5 µM | 6.78 µM | 8.34 µM | > 39.5 µM | > 100 µM | > 100 µM | – | – | – | – | – | – | – | – | – | – |
| CN(C)c1ccc(/C=N/S(=O)(=O)c2ccc(-n3c(-c4ccccc4)nc4c(Br)cc(Br)cc4c3=O)cc2)cc1 | > 97 µM | > 100 µM | 84.2 µM | > 100 µM | > 100 µM | > 92.1 µM | > 78 µM | > 100 µM | > 100 µM | > 100 µM | 32.2 µM | 44.6 µM | 34.4 µM | 48.5 µM | 34.2 µM | 32.6 µM | 28.8 µM | 40.7 µM | 34 µM | 25.6 µM |
| Cc1nc2cc(Nc3nc(Nc4ccc(F)cc4)nc(N4CCOCC4)n3)ccc2n1Cc1ccccc1 | 18.9 µM | 45.4 µM | 4.73 µM | 49.2 µM | 23.6 µM | 58.5 µM | 13.8 µM | 4.6 µM | 14.2 µM | 5.87 µM | 4.1 µM | 5.22 µM | 2.07 µM | 5.41 µM | 4.34 µM | 3.84 µM | 3.23 µM | 1.99 µM | 3.2 µM | 2.3 µM |
| CCSC[C@@H]1C[C@](O)(c2ccc(F)cc2)[C@@H](c2ccc(F)cc2)O1 | 49.3 µM | 51 µM | 21.2 µM | 29.6 µM | > 64.6 µM | 37 µM | 34.8 µM | 31.7 µM | 44 µM | 32.8 µM | 18.4 µM | 21.3 µM | 7 µM | 14.7 µM | 23.6 µM | 18 µM | 17.1 µM | 17.8 µM | 18.7 µM | 14.5 µM |
| CC(=O)O[C@H]1CC[C@@]2(C)C(=C/C(=N/OCCN3CCCC3)[C@H]3[C@@H]4CC[C@H](OC(C)=O)[C@@]4(C)CC[C@@H]32)C1 | > 100 µM | > 100 µM | 57.7 µM | > 100 µM | > 100 µM | > 100 µM | > 100 µM | > 100 µM | > 100 µM | > 100 µM | 47.5 µM | > 100 µM | 23.3 µM | > 100 µM | > 100 µM | 34.9 µM | 53.4 µM | 67.1 µM | 63.3 µM | 31.4 µM |
| COC(=O)[C@H](Cc1cn(C)cn1)NC(=O)[C@H](C)NC(=O)Nc1cc(C(F)(F)F)cc(C(F)(F)F)c1 | > 10 µM | > 10 µM | > 10 µM | > 10 µM | > 10 µM | > 10 µM | > 10 µM | > 10 µM | > 10 µM | > 10 µM | > 10 µM | > 10 µM | > 10 µM | > 10 µM | > 10 µM | > 10 µM | > 10 µM | > 10 µM | > 10 µM | > 10 µM |
| Cc1cccc2c3c(sc12)C(c1ccc(F)cc1)C(C#N)=C(N)O3 (stereo unspecified) | 1.49 µM | 4.14 µM | 0.731 µM | 17.5 µM | 14.2 µM | 1.95 µM | 11.1 µM | 12.6 µM | 14.1 µM | 11.2 µM | 0.0353 µM | 0.0446 µM | 0.0389 µM | 0.35 µM | 0.128 µM | 0.0482 µM | 0.0332 µM | 0.13 µM | 0.135 µM | 0.0744 µM |
| COc1ccc2c(c1)-c1nn(CCCN(C)C)c3ccc([N+](=O)[O-])c(c13)N2 | 1.03 µM and 2.26 µM | 2.93 µM and 1.42 µM | 1.82 µM and 9.36 µM | 6.12 µM and 6.94 µM | 4.19 µM and 5.06 µM | 3.17 µM and 3.24 µM | 2.7 µM and 10.9 µM | 4.94 µM and 14.7 µM | 2.51 µM and 2.28 µM | 3.48 µM and 6.59 µM | 0.117 µM and 0.385 µM | – | 0.468 µM and 2.9 µM | – | – | 0.355 µM | – | 0.178 µM and 0.502 µM | 0.164 µM and 0.368 µM | 0.215 µM and 0.507 µM |
